# Measured values as given in US20250281424A1 (New York Blood Center, Inc, priority 2020, published 2025).
# pIC50: −log10 of the molar value.
# Target: T1, human PF4 (Homo sapiens, UniProt P02776)
# T1 construct: PF4 is a 70 amino acid, lysine-rich 7.8 kDa platelet-specific protein; made in house; host or cells: Escherichia coli BL21DE3 pLysS (pT7-7) and/or Drosophila S2 cells
# T1 sequence (P02776 32-101): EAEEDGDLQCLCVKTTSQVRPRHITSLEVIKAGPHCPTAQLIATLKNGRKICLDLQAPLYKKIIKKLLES
# Experiment: Inhibition of PF4 tetramer formation (BS3 cross-linking, SDS-PAGE)
# Assay type: biochemical
# Conditions: for inhibition at 1 µM: 1 μM inhibitor; for inhibition at 1 µM / inhibition at 3 µM / inhibition at 5 µM / inhibition at 10 µM: read-out: % inhibition of PF4 tetramer formation at single concentration of inhibitor; for inhibition at 3 µM: 3 μM inhibitor (column A); for inhibition at 5 µM: 5 μM inhibitor; for inhibition at 10 µM: 10 μM inhibitor (column A); for pIC50: read-out: IC50 of PF4 tetramer formation inhibition
# Method in brief: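 Monomer, dimer, trimer and tetramer fractions were quantified by densitometry after reducing 12% SDS-PAGE of BS3-cross-linked (0.2 mM, 30 min, room temperature) PF4. Before cross-linking, 10 μg/ml E. coli-expressed human WT PF4 in PBS was exposed to compound for 15 min at 37° C or 60 min at room temperature; controls lacked compound.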
inhibition at 5 µM,inhibition at 10 µM,Compound,inhibition at 1 µM,inhibition at 3 µM,pIC50
75%,86%,"CO[C@@H](C(=O)C1C(=O)c2ccc(S(=O)(=O)c3ccc4c(c3)C(=O)C(C(=O)[C@H](OC)c3ccccc3)C4=O)cc2C1=O)c1ccccc1 (stereo partly drawn) [Example 136, 2-[(2R)-2-methoxy-2-phenylacetyl]-5-({2-[(2R)-2-methoxy-2-phenylacetyl]-1,3-dioxo-2,3-dihydro-1H-inden-5-yl}sulfonyl)-2,3-dihydro-1H-indene-1,3-dione]",,,4.74
,58%,"CSCC(=O)C1C(=O)c2ccc(C(=O)c3ccc4c(c3)C(=O)C(C(=O)CSC)C4=O)cc2C1=O (stereo not drawn) [Example 281, 2-[2-(methylsulfanyl)acetyl]-5-{2-[2-(methylsulfanyl)acetyl]-1,3-dioxo-2,3-dihydro-1H-indene-5-carbonyl}-2,3-dihydro-1H-indene-1,3-dione]",,,5.00
,73%,"O=C(O)CNC(=O)C1C(=O)c2ccc(S(=O)(=O)c3ccc4c(c3)C(=O)C(C(=O)NCC(=O)O)C4=O)cc2C1=O (stereo not drawn) [Example 311, 2-{[5-({2-[(carboxymethyl)carbamoyl]-1,3-dioxo-2,3-dihydro-1H-inden-5-yl}sulfonyl)-1,3-dioxo-2,3-dihydro-1H-inden-2-yl]formamido}acetic acid]",,,
86%,96%,"CC(=O)NCC(=O)C1C(=O)c2ccc(C(=O)c3ccc4c(c3)C(=O)C(C(=O)CNC(C)=O)C4=O)cc2C1=O (stereo not drawn) [Example 181, N-(2-{5-[2-(2-acetamidoacetyl)-1,3-dioxo-2,3-dihydro-1H-indene-5-carbonyl]-1,3-dioxo-2,3-dihydro-1H-inden-2-yl}-2-oxoethyl)acetamide]",,,5.80
13%,21%,"O=C(c1ccc2c(c1)C(=O)C(C(=O)[C@@H]1CCN1)C2=O)c1ccc2c(c1)C(=O)C(C(=O)[C@@H]1CCN1)C2=O (stereo partly drawn) [Example 116, 2-[(2S)-azetidine-2-carbonyl]-5-{2-[(2S)-azetidine-2-carbonyl]-1,3-dioxo-2,3-dihydro-1H-indene-5-carbonyl}-2,3-dihydro-1H-indene-1,3-dione]",,,

# Further lines, the compound ahead of its results:
Compound,inhibition at 5 µM,inhibition at 10 µM,inhibition at 1 µM,inhibition at 3 µM,pIC50
"CC(C)(C)OC(=O)NCCCC(=O)C1C(=O)c2ccc(C(=O)c3ccc4c(c3)C(=O)C(C(=O)CCCNC(=O)OC(C)(C)C)C4=O)cc2C1=O (stereo not drawn) [Example 386, tert-butyl N-(4-{5-[2-(4-{[(tert-butoxy)carbonyl]amino}butanoyl)-1,3-dioxo-2,3-dihydro-1H-indene-5-carbonyl]-1,3-dioxo-2,3-dihydro-1H-inden-2-yl}-4-oxobutyl)carbamate]",,,13%,34%,
"COCCOCCNC(=O)C1C(=O)c2ccc(C(=O)c3ccc4c(c3)C(=O)C(C(=O)NCCOCCOC)C4=O)cc2C1=O (stereo not drawn) [Example 66, 5,5′-carbonylbis(n-(2-(2-methoxyethoxy)ethyl)-1,3-dioxo-2,3-dihydro-1h-indene-2-carboxamide)]",48%,86%,,,
"CSCCCC(=O)C1C(=O)c2ccc(S(=O)(=O)c3ccc4c(c3)C(=O)C(C(=O)CCCSC)C4=O)cc2C1=O (stereo not drawn) [Example 285, 2-[4-(methylsulfanyl)butanoyl]-5-({2-[4-(methylsulfanyl)butanoyl]-1,3-dioxo-2,3-dihydro-1H-inden-5-yl}sulfonyl)-2,3-dihydro-1H-indene-1,3-dione]",,,33%,49%,5.52
"C[C@H](NC(=O)OC(C)(C)C)C(=O)C1C(=O)c2ccc(C(=O)c3ccc4c(c3)C(=O)C(C(=O)[C@H](C)NC(=O)OC(C)(C)C)C4=O)cc2C1=O (stereo partly drawn) [Example 179, tert-butyl N-[(2S)-1-(5-{2-[(2S)-2-{[(tert-butoxy)carbonyl]amino}propanoyl]-1,3-dioxo-2,3-dihydro-1H-indene-5-carbonyl}-1,3-dioxo-2,3-dihydro-1H-inden-2-yl)-1-oxopropan-2-yl]carbamate]",81%,92%,,,~5.22
"O=C(NC1CC1)C1C(=O)c2ccc(-c3ccc4c(c3)C(=O)C(C(=O)NC3CC3)C4=O)cc2C1=O (stereo not drawn) [Example 110, (2Z,2′Z)-2,2′-bis[(cyclopropylamino)(hydroxyl)methylidene]-1H,1′H,2H,2′H,3H,3′H-[5,5′-biindene]-1,1′,3,3′-tetrone]",84%,87%,,,~5.40
"CCOCC(=O)C1C(=O)c2ccc(C(=O)c3ccc4c(c3)C(=O)C(C(=O)COCC)C4=O)cc2C1=O (stereo not drawn) [Example 229, 2-(2-ethoxyacetyl)-5-[2-(2-ethoxyacetyl)-1,3-dioxo-2,3-dihydro-1H-indene-5-carbonyl]-2,3-dihydro-1H-indene-1,3-dione]",,,43%,53%,
"CC(C)(C)OC(=O)N1C[C@H](F)C[C@H]1C(=O)C1C(=O)c2ccc(-c3ccc4c(c3)C(=O)C(C(=O)[C@@H]3C[C@@H](F)CN3C(=O)OC(C)(C)C)C4=O)cc2C1=O (stereo partly drawn) [Example 215, tert-butyl (2S,4R)-2-{2′-[(2S,4R)-1-[(tert-butoxy)carbonyl]-4-fluoropyrrolidine-2-carbonyl]-1,1′,3,3′-tetraoxo-1H,1′H,2H,2′H,3H,3′H-[5,5′-biindene]-2-carbonyl}-4-fluoropyrrolidine-1-carboxylate]",,,,,5.62
"O=C(CSc1ccncc1)C1C(=O)c2ccc(S(=O)(=O)c3ccc4c(c3)C(=O)C(C(=O)CSc3ccncc3)C4=O)cc2C1=O (stereo not drawn) [Example 290, 5-({1,3-dioxo-2-[2-(pyridin-4-ylsulfanyl)acetyl]-2,3-dihydro-1H-inden-5-yl}sulfonyl)-2-[2-(pyridin-4-ylsulfanyl)acetyl]-2,3-dihydro-1H-indene-1,3-dione]",,,39%,51%,
"CCCC(=O)C1C(=O)c2ccc(C(=O)c3ccc4c(c3)C(=O)C(C(=O)CCC)C4=O)cc2C1=O (stereo not drawn) [Example 150, 2-butanoyl-5-(2-butanoyl-1,3-dioxo-2,3-dihydro-1H-indene-5-carbonyl)-2,3-dihydro-1H-indene-1,3-dione]",50%,75%,,,~4.66
"CCOC(=O)CC(=O)C1C(=O)c2ccc(S(=O)(=O)c3ccc4c(c3)C(=O)C(C(=O)CC(=O)OCC)C4=O)cc2C1=O (stereo not drawn) [Example 403, ethyl 3-(5-{[2-(3-ethoxy-3-oxopropanoyl)-1,3-dioxo-2,3-dihydro-1H-inden-5-yl]sulfonyl}-1,3-dioxo-2,3-dihydro-1H-inden-2-yl)-3-oxopropanoate]",,,22%,23%,
"O=C(NC1CC1)C1C(=O)c2ccc(C(c3ccc4c(c3)C(=O)C(C(=O)NC3CC3)C4=O)(C(F)(F)F)C(F)(F)F)cc2C1=O (stereo not drawn) [Example 108, N-cyclopropyl-5-{2-[2-(cyclopropylcarbamoyl)-1,3-dioxo-2,3-dihydro-1H-inden-5-yl]-1,1,1,3,3,3-hexafluoropropan-2-yl}-1,3-dioxo-2,3-dihydro-1H-indene-2-carboxamide]",,,,,5.27
"CC(C)(C)OC(=O)NCC(=O)C1C(=O)c2ccc(S(=O)(=O)c3ccc4c(c3)C(=O)C(C(=O)CNC(=O)OC(C)(C)C)C4=O)cc2C1=O (stereo not drawn) [Example 174, tert-butyl N-[2-(5-{[2-(2-{[(tert-butoxy)carbonyl]amino}acetyl)-1,3-dioxo-2,3-dihydro-1H-inden-5-yl]sulfonyl}-1,3-dioxo-2,3-dihydro-1H-inden-2-yl)-2-oxoethyl]carbamate]",84%,94%,,,4.96
"O=C1CC(=O)c2cc(-c3ccc4c(c3)C(=O)CC4=O)ccc21 [Example 75, 1h,1′h,2h,2′h,3h,3′h-[5,5′-biindene]-1,1′,3,3′-tetrone]",54%,85%,,,
"CC(C)(C)OC(=O)N1CC[C@H]1C(=O)C1C(=O)c2ccc(S(=O)(=O)c3ccc4c(c3)C(=O)C(C(=O)[C@@H]3CCN3C(=O)OC(C)(C)C)C4=O)cc2C1=O (stereo partly drawn) [Example 138, tert-butyl (2S)-2-[5-({2-[(2S)-1-[(tert-butoxy)carbonyl]azetidine-2-carbonyl]-1,3-dioxo-2,3-dihydro-1H-inden-5-yl}sulfonyl)-1,3-dioxo-2,3-dihydro-1H-indene-2-carbonyl]azetidine-1-carboxylate]",,,,,5.39
"CC(C)(C)OC(=O)N1CCCC[C@@H]1C(=O)C1C(=O)c2ccc(Oc3ccc4c(c3)C(=O)C(C(=O)[C@H]3CCCCN3C(=O)OC(C)(C)C)C4=O)cc2C1=O (stereo partly drawn) [Example 274, tert-butyl (2R)-2-[5-({2-[(2R)-1-[(tert-butoxy)carbonyl]piperidine-2-carbonyl]-1,3-dioxo-2,3-dihydro-1H-inden-5-yl}oxy)-1,3-dioxo-2,3-dihydro-1H-indene-2-carbonyl]piperidine-1-carboxylate]",,,21%,60%,
"O=C1c2ccc(S(=O)(=O)c3ccc4c(c3)C(=O)C(C(=O)C3CC3)C4=O)cc2C(=O)C1C(=O)C1CC1 (stereo not drawn) [Example 402, 2-cyclopropanecarbonyl-5-[(2-cyclopropanecarbonyl-1,3-dioxo-2,3-dihydro-1H-inden-5-yl)sulfonyl]-2,3-dihydro-1H-indene-1,3-dione]",,,24%,28%,
"CSCC(=O)C1C(=O)c2ccc(S(=O)(=O)c3ccc4c(c3)C(=O)C(C(=O)CSC)C4=O)cc2C1=O (stereo not drawn) [Example 282, 2-[2-(methylsulfanyl)acetyl]-5-({2-[2-(methylsulfanyl)acetyl]-1,3-dioxo-2,3-dihydro-1H-inden-5-yl}sulfonyl)-2,3-dihydro-1H-indene-1,3-dione]",,,29%,45%,5.52
